According to PMC9327782, “Benzoxazole derivatives as new VEGFR-2 inhibitors and apoptosis inducers: design, synthesis, in silico studies, and antiproliferative evaluation” (Journal of Enzyme Inhibition and Medicinal Chemistry, 2022):

Experiments:
Type in all cases: cell-based, human
WI-38 cell line = test: In vitro cytotoxicity against normal cell line (MTT); design: LogIC50 best-fit value, WI-38: unit not given here
Text: […]. Such values were very high in comparison to the corresponding values on cancer cell lines, which reflect high safety profile of the tested candidates towards normal cell lines.
MTT assay protocol. This method was applied in accordance with the comprehensive description in Supplementary data. […]
5 Raw data of cytotoxity and VEGFR -2 assay […]
Experimental of biological testing
1. In vitro anti-proliferative activity
MTT assay protocol was applied to assess the anti-proliferative activity of the synthesized compounds. Two human cancer cell lines (MCF-7 and HepG-2) and one normal cell line (WI-38) were used in this test. At first, the cell lines were cultured in RPMI -1640 medium with 10% fetal bovine serum. Antibiotics (100 units/ml penicillin and100 µg/ml streptomycin ) were added at 37 °C in a 5% CO2 incubator. The cell lines were seeded in a 96-well plate at a density of 1.0 x 10^4 cells / well at 37 °C for 24 h under 5% CO2. After incubation, the cells were treated with different […]
concentration of the synthesized compounds and incubated for 24 h. After 24 h of drug treatment, 20 µl of MTT solution at 5mg/ml was added and incubated for 4 h. Dimethyl sulfoxide (DMSO) in volume of 100 µl was added into each well to dissolve the purple formazan formed. The colorimetric assay was measured and recorded at absorbance of 570 nm using a plate reader (EXL 800, USA). The relative cell viability in percentage was calculated as (A570 of treated samples/A570 of untreated sample) X 100. […]

HepG2 cells = test: Flow cytometry apoptosis analysis (Annexin V/PI)
Experimental: In details, 32.45 and 2.86% for early and late apoptotic phases, respectively compared to control, (6.56%,5.34%,1.22%, respectively) (Figure 5 and Table 5).
Apoptotic effect was applied in accordance with the comprehensive description in Supplementary data[36]^,[37]
(§1) 4. Flow cytometry analysis for apoptosis
Flow cytometry cell apoptosis analysis was used to investigate the apoptotic effect of the synthesized compounds. HepG2 cells were treated with compound 12l (10.50 µM) for 24 h, collected by trypsin, centrifuged, washed two successive times with PBS, suspended in 500 μl binding buffer, and double stained with 5 μl Annexin V-FITC and 5 μl PI in the dark at room temperature for 15 min. The stained cells were measured using Epics XL-MCL™ Flow Cytometer and analyzed using Flowing software. […]

BAX = test: Western blot, BAX level in HepG2 cells; details: HepG2, 24 h
Experimental: Compound 12lwas subjected to further cellular mechanistic study. The cellular levels of BAX and Bcl-2 were measured using the western blot technique after compound 12l was applied to HepG2 cells for 24 h.
The western blot technique was applied in accordance with the comprehensive description in Supplementary data[38–40] […]
The proteins expression of cleaved caspase‐3, BAX, and Bcl‐2 were determined using Western blot analysis. In brief, HepG2 cells were treated with control, or with the synthesized compounds.
Then cells were lysed in 250 μL precold lysis buffer (pH 7.4: Tris‐Base [10 mM], NaCl [100 mM], ethylenediaminetetraacetic acid [EDTA, 25 mM], ethylene glycol bis (2‐aminoethyl) tetraacetic acid [EGTA, 25 mM], 1% [v/v] NP‐40, and 1% [v/v] Triton X‐100) supplemented with 1:350 protease:phosphatase inhibitors cocktail (Sigma). The cells were immediately frozen at −20°C for 1.5 hours for further lysis, collected by cell scraper, sonicated 3 × 10 seconds, and centrifuged (13000 rpm, 15 minutes). Total protein concentrations in the supernatant were determined colorimetrically using the Pierce 660 nm Protein Assay method (Thermo Fisher Scientific, Rockford, IL), with BSA as the standard. Equal amounts of protein (25 μg) samples were mixed with SDS‐loading buffer (pH 6.8: Tris‐HCl [700 mM], dithiothreitol [DTT, 600 mM], sodium dodecyl sulfate [SDS, 12%], glycerol [60%], and bromophenol blue [0.012%]), denatured by boiling at 95°C for 10 minutes, allowed to cool on ice for 15 minutes, vortexed vigorously for 30 seconds and loaded into SDS‐polyacrylamide gel and separated by an electrophoresis unit (Cleaver Scientific Ltd, UK), transferred onto polyvinylidene fluoride membranes (Bio‐Rad) for 35 minutes using a Trans‐Blot SD semi‐dry transfer cell (Bio‐Rad) at 250 mA and 22 V. Membranes were blocked with 5% (w/v) blotting grade dry milk (Bio‐Rad) in Tris‐buffered saline/Tween‐20 (TBS‐ T) (pH 7.5: Tris‐base [20 mM], NaCl [150 mM], and 0.05% [v/v] Tween‐ 20) while shaking for 1.5 hour at RT, and then incubated with the corresponding primary antibody against cleaved caspase‐3 antibody ([…], #9661; Cell Signaling Technology), β‐actin (1:2000, #A5060; Sigma), BAX (Biovision, USA) and Bcl‐2( Bioimaging, system, syngene, UK) for 9‐10 hours at 4°C in a […]
three separate experiments. […]
the synthesized compounds towards VEGFR-2. The crystal structure of VEGFR-2 was […]
2.03 Å). Sorafenib was used as reference ligand. To prepare the target protein, water molecules […]
fields. […] The validation […]
process was performed by redocking the co-crystallized ligand. The designed compounds together […]
followed by energy minimization then prepared for docking. Docking process was carried through […]
binding mode with target molecule.

Caspase-3 = test: Western blot, caspase-3 level in HepG2 cells; details: HepG2, 10.50 µM, 24 h
Experimental: Caspase-3 has a key role in apoptosis initiation and execution[26]^,[27]. The western blot technique was used to investigate the effect of compound 12 l, the most promising member, on the caspase-3 level. HepG2 cells were treated with 12l (10.50 µM) for 24 h.
The western blot technique was applied in accordance with the comprehensive description in Supplementary data[38–40]
as §1
Flow cytometry cell apoptosis analysis was used to investigate the apoptotic effect of the synthesized compounds. […] The stained cells were measured using Epics XL-MCL™ Flow Cytometer and analyzed using Flowing software.
The proteins expression of cleaved caspase‐3, BAX, and Bcl‐2 were determined using Western blot analysis. […]
Then cells were lysed in 250 μL precold lysis buffer (pH 7.4: Tris‐Base [10 mM], NaCl [100 mM], ethylenediaminetetraacetic acid [EDTA, 25 mM], ethylene glycol bis (2‐aminoethyl) tetraacetic acid [EGTA, 25 mM], 1% [v/v] NP‐40, and 1% [v/v] Triton X‐100) supplemented with 1:350 protease:phosphatase inhibitors cocktail (Sigma). […] Total protein concentrations in the supernatant were determined colorimetrically using the Pierce 660 nm Protein Assay method (Thermo Fisher Scientific, Rockford, IL), with BSA as the standard. […]

[1] = supplement raw data, dose-response curve fit
[2] = HepG2, 24 h, mean ± SEM of two experiments

Cc1ccc2oc(SCC(=O)Nc3ccc(C(=O)Nc4cccc(Cl)c4)cc3)nc2c1 [Compound 12l, N-(3-Chlorophenyl)-4–(2-((5-methylbenzo[d]oxazol-2-yl)thio)acetamido)benzamide]
IC50 (WI-38 cell line; WI-38, normal human lung cell line, MTT): 37.8 µM | HillSlope best-fit value, WI-38 (WI-38 cell line; [1]): -0.4502 | LogIC50 best-fit value, WI-38 (WI-38 cell line; [1]): 1.577 | Early apoptotic phase (HepG2 cells; HepG2, 10.50 µM, 24 h): 32.45% | Late apoptotic phase (HepG2 cells; HepG2, 10.50 µM, 24 h): 2.86% | Apoptosis Early (Right Bottom) (HepG2 cells; [2]): 32.45 ± 3.13 | Apoptosis Late (Right Top) (HepG2 cells; [2]): 2.86 ± 0.21 | Necrosis (Left Top) (HepG2 cells; [2]): 0.14 ± 0.06 | Viable (Left Bottom) (HepG2 cells; HepG2, 24 h, mean ± SEM of two experiments, in %): 64.55 ± 3.43 | Protein expression (normalized to β-actin) BAX (BAX; control = 1.00): 3.40 ± 0.15 | Protein expression (normalized to β-actin) BAX/Bcl-2 ratio (BAX; control = 1.00): 6.83 ± 0.96 | BAX level increase (BAX; versus control): 3.40 fold | BAX/Bcl-2 ratio increase (BAX; versus control): 6.83 fold | Protein expression (normalized to β-actin) Caspase-3 (Caspase-3; control = 1.00): 2.98 ± 0.13 | Caspase-3 level increase (Caspase-3; versus control): 2.98 fold
